This is an account of results in ChEMBL document CHEMBL5212743, “Selectivity Literature for EUbOPEN Chemogenomics Library wave 3” (2023).

One may read the Kd as the constant that tells how readily two partners part at equilibrium. For orientation: IC50 means the concentration needed to halve the response being measured. Read a high IC50 as lower potency.

Assay [1] concerns the target T1, Protein AF-9 (Homo sapiens, UniProt P42568).
The target of assay [2] is Protein AF-9 (Homo sapiens) (UniProt P42568).
Chain of Protein AF-9 (Homo sapiens) (P42568 whole entry): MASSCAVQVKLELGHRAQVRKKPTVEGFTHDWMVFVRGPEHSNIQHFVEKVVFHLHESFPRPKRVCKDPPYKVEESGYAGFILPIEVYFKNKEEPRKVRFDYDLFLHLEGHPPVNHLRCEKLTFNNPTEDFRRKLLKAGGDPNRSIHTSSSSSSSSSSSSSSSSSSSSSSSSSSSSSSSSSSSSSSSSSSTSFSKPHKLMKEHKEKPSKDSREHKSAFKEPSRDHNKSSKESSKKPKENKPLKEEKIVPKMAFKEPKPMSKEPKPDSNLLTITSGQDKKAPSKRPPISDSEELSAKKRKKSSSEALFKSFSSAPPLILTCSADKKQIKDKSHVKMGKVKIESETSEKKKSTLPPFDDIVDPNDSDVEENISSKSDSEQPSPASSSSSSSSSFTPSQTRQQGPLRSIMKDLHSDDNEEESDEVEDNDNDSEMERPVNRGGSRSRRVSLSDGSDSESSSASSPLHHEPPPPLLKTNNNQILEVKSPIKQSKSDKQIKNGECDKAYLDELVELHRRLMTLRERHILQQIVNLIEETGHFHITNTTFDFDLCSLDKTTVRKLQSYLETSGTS
Assay [3] concerns the target Protein ENL (Homo sapiens) (UniProt Q03111). Kind of assay: Selectivity interaction (DSF assay) EUB0000731a MLLT1. A general note: Differential scanning fluorimetry follows unfolding on heating by fluorescence.
In assay [4] the target is T2, YEATS domain-containing protein 2 (Homo sapiens, UniProt Q9ULM3).
T2 sequence (Q9ULM3 whole entry): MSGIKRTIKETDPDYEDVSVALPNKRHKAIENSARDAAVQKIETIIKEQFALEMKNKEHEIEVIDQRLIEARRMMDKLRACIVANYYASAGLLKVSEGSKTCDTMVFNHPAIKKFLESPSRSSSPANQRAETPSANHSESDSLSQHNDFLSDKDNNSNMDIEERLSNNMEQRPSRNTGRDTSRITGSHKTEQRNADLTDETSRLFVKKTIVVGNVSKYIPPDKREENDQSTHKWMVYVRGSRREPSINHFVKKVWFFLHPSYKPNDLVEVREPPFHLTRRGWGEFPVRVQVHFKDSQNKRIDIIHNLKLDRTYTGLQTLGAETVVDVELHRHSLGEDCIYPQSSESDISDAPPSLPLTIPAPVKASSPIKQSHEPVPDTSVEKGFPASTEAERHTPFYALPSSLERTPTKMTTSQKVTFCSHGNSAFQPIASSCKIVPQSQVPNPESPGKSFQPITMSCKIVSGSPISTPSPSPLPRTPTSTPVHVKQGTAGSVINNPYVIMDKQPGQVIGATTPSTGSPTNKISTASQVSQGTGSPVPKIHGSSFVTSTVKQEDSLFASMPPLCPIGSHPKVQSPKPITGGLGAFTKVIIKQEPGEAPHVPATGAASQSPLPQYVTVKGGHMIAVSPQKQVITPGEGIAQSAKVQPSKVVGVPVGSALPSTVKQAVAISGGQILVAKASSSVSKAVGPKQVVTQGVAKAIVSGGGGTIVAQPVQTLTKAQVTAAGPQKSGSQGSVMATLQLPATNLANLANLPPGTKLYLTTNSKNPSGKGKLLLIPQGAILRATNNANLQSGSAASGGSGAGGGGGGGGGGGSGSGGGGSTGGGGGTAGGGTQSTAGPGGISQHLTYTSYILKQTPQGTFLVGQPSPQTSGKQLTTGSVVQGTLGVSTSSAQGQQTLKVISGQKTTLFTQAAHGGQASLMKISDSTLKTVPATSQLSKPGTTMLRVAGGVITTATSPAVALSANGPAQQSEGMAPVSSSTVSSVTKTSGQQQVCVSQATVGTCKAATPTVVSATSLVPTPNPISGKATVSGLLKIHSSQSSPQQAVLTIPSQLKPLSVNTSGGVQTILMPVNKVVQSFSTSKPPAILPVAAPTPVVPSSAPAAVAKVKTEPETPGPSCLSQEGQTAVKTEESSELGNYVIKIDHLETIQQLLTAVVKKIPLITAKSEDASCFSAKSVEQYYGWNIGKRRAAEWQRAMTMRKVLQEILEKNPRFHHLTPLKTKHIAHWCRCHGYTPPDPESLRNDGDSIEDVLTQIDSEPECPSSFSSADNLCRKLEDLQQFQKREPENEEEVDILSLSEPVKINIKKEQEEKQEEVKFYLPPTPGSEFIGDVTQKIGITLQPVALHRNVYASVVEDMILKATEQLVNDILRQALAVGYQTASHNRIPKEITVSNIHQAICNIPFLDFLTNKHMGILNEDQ
The assay can be described thus: Selectivity interaction (Enzyme panel (PDEs, ion channels, and GPCRS, HTRF assay)) EUB0000731a YEATS2. On the technique in general: Time-resolved FRET reads energy transfer from a long-lived donor to a nearby acceptor.

Assay [5] has as its target T1, Protein AF-9. This is another data set of the same source.
Assay [6] has as its target T3, YEATS domain-containing protein 4 (Homo sapiens, UniProt O95619). The assay can be described thus: Selectivity interaction (Enzyme panel (PDEs, ion channels, and GPCRS, HTRF assay)) EUB0000731a YEATS4.
Assay [7] addresses Vascular endothelial growth factor receptor 2 (Homo sapiens, UniProt P35968). Kind of assay: Selectivity interaction (Kinase panel (literature or Upstate/Millipore)) EUB0000665a KDR.
Assay [8] addresses 5-hydroxytryptamine receptor 6 (Homo sapiens) (UniProt P50406). As to conditions: at 10 µM.
The target in assay [9] is T4, Adenosine receptor A3 (Homo sapiens) (UniProt P0DMS8).
T4 sequence (whole entry): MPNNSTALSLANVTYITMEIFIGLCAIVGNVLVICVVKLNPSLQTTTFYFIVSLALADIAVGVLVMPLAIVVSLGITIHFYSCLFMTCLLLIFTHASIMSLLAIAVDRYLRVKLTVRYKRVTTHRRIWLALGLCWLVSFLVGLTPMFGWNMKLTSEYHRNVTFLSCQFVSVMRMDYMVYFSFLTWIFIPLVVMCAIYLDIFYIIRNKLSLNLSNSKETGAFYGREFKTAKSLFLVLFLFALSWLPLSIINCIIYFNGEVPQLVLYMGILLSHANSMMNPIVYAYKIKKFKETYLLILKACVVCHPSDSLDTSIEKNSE
The settings on record: at 10 µM.

The target of assay [10] is Bromodomain-containing protein 1 (Homo sapiens) (UniProt O95696).
Chain of Bromodomain-containing protein 1 (Homo sapiens) (O95696 whole entry): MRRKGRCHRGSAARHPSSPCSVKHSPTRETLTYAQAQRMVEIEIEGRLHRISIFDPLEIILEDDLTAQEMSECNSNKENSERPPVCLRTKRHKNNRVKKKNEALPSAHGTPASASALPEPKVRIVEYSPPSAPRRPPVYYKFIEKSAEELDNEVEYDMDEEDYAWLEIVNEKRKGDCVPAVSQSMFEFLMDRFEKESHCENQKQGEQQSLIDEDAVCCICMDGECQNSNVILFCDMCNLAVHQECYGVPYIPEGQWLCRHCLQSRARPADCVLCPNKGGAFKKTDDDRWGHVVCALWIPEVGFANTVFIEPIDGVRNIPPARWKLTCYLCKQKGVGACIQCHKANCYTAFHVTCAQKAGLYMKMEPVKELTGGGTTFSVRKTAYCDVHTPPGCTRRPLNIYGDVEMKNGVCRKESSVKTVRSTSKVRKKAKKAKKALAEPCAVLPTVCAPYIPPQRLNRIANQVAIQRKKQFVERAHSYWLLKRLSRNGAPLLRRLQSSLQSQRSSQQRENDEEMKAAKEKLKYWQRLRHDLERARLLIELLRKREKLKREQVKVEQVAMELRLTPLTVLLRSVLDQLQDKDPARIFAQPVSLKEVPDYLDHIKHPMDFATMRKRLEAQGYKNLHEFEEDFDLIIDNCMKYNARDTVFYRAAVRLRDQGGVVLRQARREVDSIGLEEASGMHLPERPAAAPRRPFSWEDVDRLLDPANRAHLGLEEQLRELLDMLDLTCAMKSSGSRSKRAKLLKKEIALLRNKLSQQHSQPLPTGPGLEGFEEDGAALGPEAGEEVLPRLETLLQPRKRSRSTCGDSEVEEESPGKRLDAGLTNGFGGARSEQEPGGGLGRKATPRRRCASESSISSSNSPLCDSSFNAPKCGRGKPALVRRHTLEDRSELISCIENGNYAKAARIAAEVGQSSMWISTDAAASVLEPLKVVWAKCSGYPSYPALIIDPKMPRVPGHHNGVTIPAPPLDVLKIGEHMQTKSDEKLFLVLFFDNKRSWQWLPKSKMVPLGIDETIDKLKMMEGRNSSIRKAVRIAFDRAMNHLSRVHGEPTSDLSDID
Assay [11] addresses Bromodomain and PHD finger-containing protein 3 (Homo sapiens) (UniProt Q9ULD4).
In assay [12] the target is Bromodomain-containing protein 1 (Homo sapiens, UniProt O95696). Kind of assay: Selectivity interaction (AlphaScreen) EUB0000323b BRD1. Background: In Alpha technology, singlet oxygen from a donor bead excites a nearby acceptor bead.
Chain of Bromodomain-containing protein 1 (O95696 whole entry): as above
Another assay deals with Peregrin (Homo sapiens) (UniProt P55201).
The target in assay [13] is T5, Adenosine receptor A1 (Homo sapiens) (UniProt P30542).
T5 sequence (whole entry): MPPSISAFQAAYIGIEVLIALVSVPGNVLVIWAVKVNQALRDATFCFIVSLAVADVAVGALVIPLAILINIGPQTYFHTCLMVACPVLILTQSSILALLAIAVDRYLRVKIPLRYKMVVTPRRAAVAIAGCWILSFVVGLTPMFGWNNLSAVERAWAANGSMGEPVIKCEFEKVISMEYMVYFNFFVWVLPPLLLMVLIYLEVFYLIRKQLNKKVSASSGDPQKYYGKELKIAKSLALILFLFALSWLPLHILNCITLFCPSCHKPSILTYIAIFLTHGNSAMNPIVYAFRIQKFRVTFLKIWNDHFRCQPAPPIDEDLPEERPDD
As to conditions: at 10 µM.

In assay [14] the target is Bromodomain-containing protein 4 (Homo sapiens, UniProt O60885).
Assay [15] has as its target T3, YEATS domain-containing protein 4. The assay can be described thus: Selectivity interaction (HTRF-based inhibition assay) EUB0000732a YEATS4.
The target of assay [16] is T2, YEATS domain-containing protein 2. The assay can be described thus: Selectivity interaction (HTRF-based inhibition assay) EUB0000732a YEATS2.
Assay [17] has as its target T3, YEATS domain-containing protein 4. The assay can be described thus: Selectivity interaction (Bromodomain panel (TR-FRET assay)) EUB0000283b YEATS4.
Assay [18] addresses Serine/threonine-protein kinase pim-1 (Homo sapiens, UniProt P11309). Kind of assay: Selectivity interaction (PSP kinase safety panel (Eurofins)) EUB0000283b PIM1.
The target in a further assay is Histamine H3 receptor (Homo sapiens, UniProt Q9Y5N1). Kind of assay: Selectivity interaction (PSP Principial panel 20118+ (panel of GPCRs, transporter, and ion channels)) EUB0000283b HRH3.
Assay [19] concerns the target T2, YEATS domain-containing protein 2. The assay can be described thus: Selectivity interaction (Bromodomain panel (TR-FRET assay)) EUB0000283b YEATS2.
Assay [20] has as its target Muscarinic acetylcholine receptor M2 (Homo sapiens, UniProt P08172). Kind of assay: Selectivity interaction (PSP Principial panel 20118+ (panel of GPCRs, transporter, and ion channels)) EUB0000283b CHRM2.
A further assay addresses Acetylcholinesterase (Homo sapiens, UniProt P22303). The assay can be described thus: Selectivity interaction (PSP Principial panel 20118+ (panel of GPCRs, transporter, and ion channels)) EUB0000283b ACHE.
Assay [21] addresses Sodium-dependent noradrenaline transporter (Homo sapiens, UniProt P23975). Kind of assay: Selectivity interaction (PSP Principial panel 20118+ (panel of GPCRs, transporter, and ion channels)) EUB0000283b SLC6A2.
In assay [22] the target is T6, Protein ENL (Homo sapiens, UniProt Q03111). The assay can be described thus: Selectivity interaction (ITC) EUB0000283b MLLT1.
T6 sequence (Q03111 whole entry): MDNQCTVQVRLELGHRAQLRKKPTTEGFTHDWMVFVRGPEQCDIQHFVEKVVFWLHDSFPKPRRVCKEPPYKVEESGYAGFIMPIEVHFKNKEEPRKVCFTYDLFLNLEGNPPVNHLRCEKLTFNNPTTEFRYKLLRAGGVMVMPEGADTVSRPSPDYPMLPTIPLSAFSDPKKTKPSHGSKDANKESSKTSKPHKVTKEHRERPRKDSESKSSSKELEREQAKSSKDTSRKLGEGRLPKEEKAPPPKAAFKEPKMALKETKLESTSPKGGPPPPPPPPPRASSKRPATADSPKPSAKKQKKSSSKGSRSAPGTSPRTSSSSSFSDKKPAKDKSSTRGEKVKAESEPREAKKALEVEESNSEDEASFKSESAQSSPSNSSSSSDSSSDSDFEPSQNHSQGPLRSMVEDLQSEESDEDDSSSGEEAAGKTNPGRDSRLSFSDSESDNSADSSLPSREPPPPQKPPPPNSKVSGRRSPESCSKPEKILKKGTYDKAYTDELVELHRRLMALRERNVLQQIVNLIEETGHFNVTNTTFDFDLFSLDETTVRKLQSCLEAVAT
Assay [23] addresses T6, Protein ENL. The assay can be described thus: Selectivity interaction (BioLayer Interferometry assay (BLI)) EUB0000283b MLLT1.
The next assay addresses Tribbles homolog 2 (Homo sapiens, UniProt Q92519). Kind of assay: Selectivity interaction (PSP kinase safety panel (Eurofins)) EUB0000283b TRIB2.
Assay [24] concerns the target Chromatin remodeling regulator CECR2 (Homo sapiens, UniProt Q9BXF3). The assay can be described thus: Selectivity interaction (Bromodomain panel (TR-FRET assay)) EUB0000283b CECR2.
In assay [25] the target is SWI/SNF-related matrix-associated actin-dependent regulator of chromatin subfamily A member 2 (Homo sapiens) (UniProt P51531). The assay can be described thus: Selectivity interaction (Bromodomain panel (DSF assay)) EUB0000199c SMARCA2.
Chain of SWI/SNF-related matrix-associated actin-dependent regulator of chromatin subfamily A member 2 (Homo sapiens) (P51531 whole entry): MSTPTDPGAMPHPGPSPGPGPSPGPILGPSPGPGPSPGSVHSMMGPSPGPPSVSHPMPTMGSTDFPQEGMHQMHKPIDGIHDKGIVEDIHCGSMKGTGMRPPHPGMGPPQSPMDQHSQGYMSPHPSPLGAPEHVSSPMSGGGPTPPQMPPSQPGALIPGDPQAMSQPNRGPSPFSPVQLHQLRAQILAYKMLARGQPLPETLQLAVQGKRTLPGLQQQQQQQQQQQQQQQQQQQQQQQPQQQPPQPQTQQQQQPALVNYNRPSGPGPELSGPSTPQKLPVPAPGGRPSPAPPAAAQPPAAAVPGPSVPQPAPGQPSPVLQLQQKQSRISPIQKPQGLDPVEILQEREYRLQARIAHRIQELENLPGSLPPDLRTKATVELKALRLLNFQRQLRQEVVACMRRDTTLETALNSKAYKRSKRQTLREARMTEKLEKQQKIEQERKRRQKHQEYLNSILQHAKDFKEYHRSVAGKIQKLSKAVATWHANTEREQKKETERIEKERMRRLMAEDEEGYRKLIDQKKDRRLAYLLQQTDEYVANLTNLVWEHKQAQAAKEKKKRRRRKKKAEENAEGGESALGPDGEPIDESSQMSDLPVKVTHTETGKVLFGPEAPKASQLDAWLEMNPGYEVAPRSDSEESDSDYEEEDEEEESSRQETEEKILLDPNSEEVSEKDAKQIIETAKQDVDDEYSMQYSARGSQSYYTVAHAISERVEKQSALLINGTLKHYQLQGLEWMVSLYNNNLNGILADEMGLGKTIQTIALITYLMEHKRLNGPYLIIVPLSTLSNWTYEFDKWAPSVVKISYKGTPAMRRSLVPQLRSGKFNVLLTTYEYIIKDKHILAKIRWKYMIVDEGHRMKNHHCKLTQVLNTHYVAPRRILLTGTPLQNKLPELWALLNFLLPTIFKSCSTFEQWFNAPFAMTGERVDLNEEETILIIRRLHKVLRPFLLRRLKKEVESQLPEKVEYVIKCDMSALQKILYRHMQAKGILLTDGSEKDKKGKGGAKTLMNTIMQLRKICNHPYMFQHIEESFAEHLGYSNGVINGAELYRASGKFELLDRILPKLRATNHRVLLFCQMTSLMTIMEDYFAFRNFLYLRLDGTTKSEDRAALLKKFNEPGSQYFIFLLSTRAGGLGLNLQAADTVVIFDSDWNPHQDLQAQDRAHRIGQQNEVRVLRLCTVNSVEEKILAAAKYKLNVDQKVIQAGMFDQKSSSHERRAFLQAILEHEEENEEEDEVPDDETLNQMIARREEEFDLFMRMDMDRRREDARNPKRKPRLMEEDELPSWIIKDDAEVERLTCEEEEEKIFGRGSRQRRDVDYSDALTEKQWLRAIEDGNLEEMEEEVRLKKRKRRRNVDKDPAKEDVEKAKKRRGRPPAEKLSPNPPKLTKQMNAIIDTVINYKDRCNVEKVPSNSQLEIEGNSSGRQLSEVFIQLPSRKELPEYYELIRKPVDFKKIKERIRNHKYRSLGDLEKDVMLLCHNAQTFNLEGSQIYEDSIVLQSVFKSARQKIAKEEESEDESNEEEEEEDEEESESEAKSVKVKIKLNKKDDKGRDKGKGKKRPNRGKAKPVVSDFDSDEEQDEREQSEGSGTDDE
Assay [26] deals with Kappa-type opioid receptor (Homo sapiens, UniProt P41145). Kind of assay: Selectivity interaction (CEREP panel (cellular receptors and 30 other enzymes)) EUB0000199c OPRK1.
For assay [27], the target named is T7, Alpha-1B adrenergic receptor (Homo sapiens, UniProt P35368).
T7 sequence (P35368 whole entry): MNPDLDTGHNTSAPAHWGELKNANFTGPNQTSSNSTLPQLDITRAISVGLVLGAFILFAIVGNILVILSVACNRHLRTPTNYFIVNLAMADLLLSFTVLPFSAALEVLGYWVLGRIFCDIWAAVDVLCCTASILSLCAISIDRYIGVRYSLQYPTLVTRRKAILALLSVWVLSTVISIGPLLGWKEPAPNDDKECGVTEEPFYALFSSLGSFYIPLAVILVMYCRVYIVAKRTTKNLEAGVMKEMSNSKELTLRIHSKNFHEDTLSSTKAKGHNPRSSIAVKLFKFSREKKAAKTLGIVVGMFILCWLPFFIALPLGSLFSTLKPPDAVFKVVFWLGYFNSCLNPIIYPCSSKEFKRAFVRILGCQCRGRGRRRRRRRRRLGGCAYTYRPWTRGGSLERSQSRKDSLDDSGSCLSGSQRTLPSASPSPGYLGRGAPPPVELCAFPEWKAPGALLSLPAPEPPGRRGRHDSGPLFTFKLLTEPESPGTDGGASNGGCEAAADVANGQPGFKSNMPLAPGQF
Kind of assay: Selectivity interaction (CEREP panel (cellular receptors and 30 other enzymes)) EUB0000199c ADRA1B.

The target of assay [28] is 5-hydroxytryptamine receptor 2B (Homo sapiens, UniProt P41595). Kind of assay: Selectivity interaction (CEREP panel (cellular receptors and 30 other enzymes)) EUB0000199c HTR2B.
Assay [29] has as its target T8, Alpha-1A adrenergic receptor (Homo sapiens, UniProt P35348).
T8 sequence (P35348 whole entry): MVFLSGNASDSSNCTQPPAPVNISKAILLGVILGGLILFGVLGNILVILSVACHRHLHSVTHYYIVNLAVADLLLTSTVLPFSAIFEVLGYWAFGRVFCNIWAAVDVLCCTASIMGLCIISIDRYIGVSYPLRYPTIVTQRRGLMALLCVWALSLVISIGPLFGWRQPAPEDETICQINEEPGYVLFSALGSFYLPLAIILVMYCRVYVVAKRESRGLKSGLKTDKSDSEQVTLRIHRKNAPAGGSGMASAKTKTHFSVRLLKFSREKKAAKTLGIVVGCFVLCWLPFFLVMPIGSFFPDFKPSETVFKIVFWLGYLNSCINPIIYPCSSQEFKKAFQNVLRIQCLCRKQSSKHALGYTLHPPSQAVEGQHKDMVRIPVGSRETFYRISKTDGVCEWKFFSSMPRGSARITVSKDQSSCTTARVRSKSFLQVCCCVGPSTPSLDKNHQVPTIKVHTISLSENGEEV
The assay can be described thus: Selectivity interaction (CEREP panel (cellular receptors and 30 other enzymes)) EUB0000199c ADRA1A.

T3 sequence (O95619 whole entry, the tested form may be a part): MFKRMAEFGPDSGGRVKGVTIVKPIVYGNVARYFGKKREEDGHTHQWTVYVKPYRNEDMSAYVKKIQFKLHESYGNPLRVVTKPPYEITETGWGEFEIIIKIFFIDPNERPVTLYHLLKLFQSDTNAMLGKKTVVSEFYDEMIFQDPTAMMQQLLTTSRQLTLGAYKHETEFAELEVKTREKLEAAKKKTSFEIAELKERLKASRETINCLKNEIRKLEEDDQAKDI
T1 sequence (P42568 whole entry): as the sequence (P42568 whole entry) above
Chain of Tribbles homolog 2 (Q92519 whole entry): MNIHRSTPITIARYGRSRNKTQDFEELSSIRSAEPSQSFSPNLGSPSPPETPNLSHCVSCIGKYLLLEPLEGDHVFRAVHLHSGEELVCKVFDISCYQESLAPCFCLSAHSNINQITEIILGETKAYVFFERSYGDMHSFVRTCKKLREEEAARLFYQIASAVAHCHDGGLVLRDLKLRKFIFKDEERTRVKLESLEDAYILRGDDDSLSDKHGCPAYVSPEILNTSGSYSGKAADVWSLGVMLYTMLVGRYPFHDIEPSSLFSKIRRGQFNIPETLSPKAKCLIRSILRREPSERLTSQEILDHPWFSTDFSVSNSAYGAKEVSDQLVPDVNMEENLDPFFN
Chain of Protein ENL (Homo sapiens) (Q03111 whole entry, the tested form may be a part): as the sequence (Q03111 whole entry) above
Chain of 5-hydroxytryptamine receptor 6 (Homo sapiens) (P50406 whole entry): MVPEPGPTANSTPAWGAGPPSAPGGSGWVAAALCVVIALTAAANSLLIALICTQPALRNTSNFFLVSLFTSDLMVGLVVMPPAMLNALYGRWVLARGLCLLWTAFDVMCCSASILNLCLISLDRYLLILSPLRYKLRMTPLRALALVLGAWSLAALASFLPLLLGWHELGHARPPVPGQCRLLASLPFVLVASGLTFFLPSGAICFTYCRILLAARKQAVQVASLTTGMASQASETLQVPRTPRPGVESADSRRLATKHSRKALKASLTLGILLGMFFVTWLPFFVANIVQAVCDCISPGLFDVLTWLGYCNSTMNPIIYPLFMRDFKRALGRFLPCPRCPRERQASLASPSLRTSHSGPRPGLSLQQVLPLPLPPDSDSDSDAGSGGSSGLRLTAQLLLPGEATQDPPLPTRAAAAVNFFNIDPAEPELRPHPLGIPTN

Take `CN(C)C(=O)c1ccc(-c2cc(C(=O)N[C@@H]3CCc4ccccc43)no2)cc1O`: the Kd on Protein AF-9 [1] came to 110 nM; on Protein AF-9 [5], 76 nM. Besides, the dTm was 5.13 K in assay [2] and 3.61 K in assay [3]. Further, the IC50 in assay [4] and in [6] was over 40000 nM each time.
For the molecule `Cn1cc(-c2[nH]c3cc(NC(=O)[C@H](N)C4CCCCC4)cc4c3c2C=NNC4=O)cn1`, half-maximal inhibition in assay [7] (IC50) required 8 nM.
Regarding `COc1cc2c(cc1NS(=O)(=O)c1ccc(Br)cc1C)n(C)c(=O)n2C`, the % of inhibition in [8] stood at 54%; in assay [9], 53%; in assay [13], 82%. Also, the dTm in assay [10] was 3.1 K; in [11] it was 3.3 K; at Peregrin (Homo sapiens) it was 6.5 K; in assay [14], 2.1 K. In assay [12], this molecule displayed an IC50 of 2200 nM.
As for `CN(C)C(=O)c1ccc(-c2cc(C(=O)N(C)C3CCCC3)no2)cc1O`, the IC50 in assay [15] and in assay [16] was over 30000 nM throughout.
`C[C@H]1CCCN1Cc1nc2cc(NC(=O)c3ccc4cnccc4c3)ccc2[nH]1`: the IC50 is over 20000 nM in assay [17]; 8600 nM in [18]; 290 nM against Histamine H3 receptor; over 20000 nM in assay [19]; 1800 nM in [20]; 250 nM on Acetylcholinesterase. Further, the results for the IC50 (in assay [21]; against Tribbles homolog 2; in assay [24]) were 8700 nM, 3500 nM and over 40000 nM, respectively. Moreover, the Kd on Protein ENL [22] came to 109 nM; at Protein ENL [23], 75 nM.
On to `O=C(/C=C/N1C[C@H]2C[C@@H]1CN2c1ccccn1)c1ccccc1O`, for which the dTm in [25] came out at 9.2 K. Moreover, the IC50 in assay [26] is 13000 nM; in assay [27], 3600 nM; in assay [28], 4000 nM; in assay [29], 440 nM.
